Test results from patent publication US6878702B2, “Anti-inflammatory agents” (Orion Corporation, priority 2000, dated 2005).
Values belong to the compound of their own block, whether it stands above or below them.

How the values were obtained:
[1] = system: carrageenan-induced rat paw edema; experiment: Carrageenan-induced paw edema in rats; type: in vivo; details: 3 h, male Wistar rats
Experimental: The acute inflammation was induced to the male Wistar rats by an injection of 0.1 ml of 1 or 2% lambda-carrageenan solution into the subplantar tissue of the right hind paw (=1 or 2 mg/paw). Three hours after the carrageenan injection the rats were killed. Both hind paws were cut off just above the heel and weighed. The test compounds (levosimendan and dextrosimendan) were administered orally 30 minutes before the induction of inflammation using dosing levels:
Control rats were included in each experiment. The difference between the weight of the right and the left hind paw was regarded as swelling. 9-10 animals were included in each group.

[2] = system: mitochondrial KATP channel; experiment: Mitochondrial ATP dependent potassium channel opening: membrane potential (ΔΨ) of isolated liver mitochondria, rhodamine 123; type: biochemical, rat; details: for ΔΨ of rat liver mitochondria in the choline chloride medium / ΔΨ of rat liver mitochondria in KCl medium: <2.58 μM concentration; for ΔΨ of rat liver mitochondria in KCl medium: respiring only on endogenous substrates, KCl medium with 400 μM ATP and 1 mg oligomycin/mg protein, FIG. 2; for effect on ΔΨ in presence of 5-hydroxydecanoate (5-HD), selective blocker of mitochondrial KATP channel: with 5-HD, data not shown
Source text: In respiring mitochondria, the decrease in ΔΨ due to the KATP channel opening is compensated by an increased respiration rate. When mitochondria respires only on endogenous substrates, and phosphorylation is blocked by oligomycin, the respiration rate is sufficient to generate a high ΔΨ. However, opening of KATP channels leads to a decrease in ΔΨ, which could not be compensated by increased respiration rate. In such a model, opening of KATP channel is unmasked, and can be recorded. This model was applied to test if opening could be induced by dextrosimendan and levosimendan.
Mitochondria were isolated from rat livers by differential centrifugation in medium containing 210 mM mannitol, 70 mM sucrose, 10 mM Hepes, 1 mM EGTA and 5 mg/ml bovine serum albumin, pH 7.4. The mitochondrial protein concentration was determined by modified Biuret method. Oxygen consumption of isolated liver mitochondria was recorded at 25° C. by means of the Clark-type electrode system in the KCl medium (100 mM KCl, 2 mM KH2PO4, 10 mM HEPES, 1 mM MgCl2, pH 7.4 with TRIZMA base) or choline chloride medium (100 mM choline chloride, 2 mM NaH2PO4, 10 mM HEPES, 1 mM MgCl2, pH 7.4 with TRIZMA base). The final mitochondrial protein concentration used in experiments was 1 mg protein/ml. For studies of respiring mitochondria, 5 mM succinate in the presence of 5 μM rotenone was used as substrate.
Membrane potential (ΔΨ) of liver mitochondria was measured with rhodamine 123 as a fluorescent probe using the excitation at 503 nm and emission at 527 nm at room temperature with the Hitachi F4000 fluorometer. The difference in fluorescense between mitochondria with addition of FCCP (0.4 μM) and without it was taken as 100%, and decrease in membrane potential by the tested compounds was expressed in % of FCCP effect.

- melting point: 125 to 128 °C
Structure (SMILES): CC1SC(=O)NN=C1c1ccc(NN=C(C#N)C#N)cc1 (single isomer, unassigned; (+)) [compound B, (+)-[[4-(3,6-dihydro-6-methyl-2-oxo-2H-1,3,4-thiadiazin-5-yl)phenyl]hydrazono]propanedinitrile]

Structure (SMILES): CC1CC(=O)NN=C1c1ccc(NN=C(C#N)C#N)cc1 (single isomer, unassigned; (+)) [Dextrosimendan]
- carrageenan-induced rat paw edema (swelling, weight difference of hind paws) ([1]; carrageenan 2 mg/paw, 10, 30 and 100 mg/kg orally 30 min before, FIG. 3b): inhibited the carrageenan-induced rat paw edema significantly
- ΔΨ of rat liver mitochondria in the choline chloride medium [2]: did not significantly change
- ΔΨ of rat liver mitochondria in KCl medium [2]: decreased
- effect on ΔΨ in presence of 5-hydroxydecanoate (5-HD), selective blocker of mitochondrial KATP channel [2]: abolished

Structure (SMILES): C[C@@H]1CC(=O)NN=C1c1ccc(NN=C(C#N)C#N)cc1 [levosimendan, reference compound]
- carrageenan-induced rat paw edema (swelling, weight difference of hind paws) ([1]; carrageenan 1 mg/paw, 0.1, 1 and 10 mg/kg orally 30 min before, FIG. 3a): inhibited the carrageenan-induced rat paw edema significantly
- ΔΨ of rat liver mitochondria in the choline chloride medium [2]: did not significantly change
- ΔΨ of rat liver mitochondria in KCl medium [2]: decreased
- effect on ΔΨ in presence of 5-hydroxydecanoate (5-HD), selective blocker of mitochondrial KATP channel [2]: abolished
